How the values were obtained:
[1] = molecular target: T1, beta amyloid 1-42 (Homo sapiens, UniProt P05067); test: Inhibition test of beta amyloid aggregation (Thioflavin T fluorescence); format: biochemical; conditions: FIG. 1
T1 construct: Synthetic beta amyloid 1-42 (BACHEM); purchased BACHEM; host or cells: synthetic peptide
Description: Synthetic beta amyloid 1-42 (BACHEM) was dissolved in DMSO in order to 250 μm solution and diluted with PBS into 1/10 on fluorescent black plate to induce aggregation. By comparing with inhibition activity of the tanshinone compounds prepared in Example 1 on beta amyloid aggregation, the test sample showing more than 50% inhibition activity at 10 μg/ml was chosen to use and added to react for 1 hour at room temperature. ThT (Thioflavin T) was diluted with 50 mM glycine buffer solution and the diluted solution was added to each well by 150 μl/well. The absorbance was determined by microplate reader (SAFIRE, TECAN) at 450 nm excitation wavelength/480 nm emission wavelength and the inhibition activity of the test sample on beta amyloid aggregation was transformed into IC50.

[2] = test system: HT22 mouse neuronal cell line treated with aggregated beta amyloid 25-35; test: Inhibition test of beta amyloid toxicity (MTT); format: cell-based; conditions: HT22 cells, 25 μm aggregated beta amyloid 25-35, 18 hours
Description: To determine the inhibitory activity of the compounds prepared in Examples on beta-amyloid toxicity, following test was performed according to the procedure disclosed in the literature (Gillardon, F. et al., Brain Research, 706(1), pp. 169-172, 1996).
HT22 mouse neuronal cell line was incubated in DMEM (Dulbecco's Modified Eagle's Medium, Gibco-BRL) medium supplemented with 10% FBS (Fetal Bovine Serum, Hyclone) and 1% penicillin/streptomycin (Sigma Co.). Prior to test, HT22 cell was incubated on 96 well plates with a density of 5×10^3 cell/well and further incubated in serum free DMEM medium for 1 hour before the treatment of test sample. Various concentration of compounds prepared in Examples used as a test sample was added thereto and incubated for 1 hour. Aggregated beta amyloid 25-35 (US peptide) was treated thereto to the concentration of 25 μm and incubated for 18 hours to induce cell necrosis. 5 mg/ml of MTT (3-(4,5-dimethyl-2-thiazolyl)-2,5-diphenyl-2H-tetrazolium bromide) solution was added each well with 15 μl/well and the well was incubated for 4 hours. Dissolving buffer solution (10% SDS, 50% dimethyl formamide, pH 4.7) was added to each well with 100 μl/well and reacted for overnight. 18 hours after the reaction, the absorbance of solution was determined by microplate reader (SAFIRE, TECAN) at 570 nm/630 nm wavelength (Gillardon, F. et al., Brain Research, 706(1) pp 169-172, 1996).

[3] = test system: ICR mouse administrated aggregated beta amyloid 1-42; test: AD acute model experiment - Y maze test; format: in vivo
Description: For passive avoidance test, male ICR mouse weighing 25 g purchased from Samtaco Co. was bred with five mice per cage and the cage was kept with following condition maintaining the temperature of 22±2° C. and the relative humidity of […] under the regularly controlled light/dark condition with an interval of 12 hours.
Synthetic beta amyloid 1-42 (BACHEM) was dissolved in DMSO in order to be 250 μm solution and diluted with PBS to […] and aggregated at 37° C. for four days (Passive Avoidance test) or six days (Y maze test).
Aggregated beta amyloid 1-42 was administrated into the mice according to the procedure disclosed in the literature (Lausen & Belknap, J. Pharmacol. Methods, 16 pp 355-357, 1986). […]
The Y-maze test was performed two days after the administration of beta-amyloid. […] Thereafter, the entering order of the mice into the pathway was observed and the entering time was determined when four limbs of the mice were entered within the pathway. To determine the spatial memory, the percentage of spontaneous alteration behavior was calculated by applying the measured alteration frequency to following empirical formula 1 and the frequency of actual alteration behavior was assigned once at the time that the mice had entered the three pathways continuously. […]

[4] = test system: beta amyloid plaque; test: Congo Red staining of beta amyloid plaque in brain sections of transgenic mice; format: in vivo, mouse; conditions: FIG. 14
[5] = test system: ChAT positive neuron; test: ChAT antibody staining of brain sections of transgenic mice; format: in vivo, mouse; conditions: FIG. 15
Description: 13 months old dementia model male mice expressing APPswe was used in the experiment and the mice was divided into two groups, i.e., control group consisting of 2 mice and test groups consisting of 4 mice. Each mouse had been fed with the feed mixed with 3 mg of compound IIb everyday for 4 months.
Four tissue sections per mouse were added to PBST to flocculate and then anti-ChAT was added thereto with a ratio of 1:100. The solution was reacted together for overnight at 4° C. and the tissues were washed with PBST. Secondary antibody (HRP conjugated […] IgG antibody) was added thereto and mixed together with the mixed ratio of 1:1000 at room temperature one hour before the reaction.
After washing again with PBST, the tissues were stained to brown color with DAB kit as a staining agent. The stained tissues were photographed using by optical microscope connecting with […] camera and then the number of the ChAT positive neuron in the tissues was determined.

T1 sequence (P05067 672-713): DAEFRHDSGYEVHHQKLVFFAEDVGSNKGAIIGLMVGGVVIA

For `COCCCc1ccc2oc(-c3ccc(OC)c(OC)c3)cc2c1` [Compound 18b, 2-(3,4-dimethoxy-phenyl)-5-(3-methoxy-propyl)-benzofuran], which “inhibitory effect on the aggregation of beta amyloid” value [1] is on record?
Its value is “most potent inhibitory effect”.

What about the “inhibition effect on beta-amyloid toxicity” value [2] of the same molecule?
Its value is “potent inhibition effect”.

What about the “recovering effect on memory learning capacity damaged by beta-amyloid (Y maze, spontaneous alteration)” value ([3]; mice, oral, 50, 100 and 200 mg/kg, FIG. 2, FIG. 3) of the same molecule?
Its value is “potent recovering effect on memory learning capacity damaged by beta-amyloid in a dose dependent manner”.

And the “effect on the memory learning capacity (Y maze), best dose group” value ([3]; treatment group with more than 100 mg/kg, FIG. 3)?
Its value is “most excellent effect”.

What about the “numbers, size, and area of plaque in brain” value [4] of the same molecule?
The value was “significantly reduced”.

And the “number of neuron (ChAT positive) in brain” value [5]?
Its value is “slightly increased”.
